# Reference: patent publication US20170114030A1, “COMPOSITION WITH HIGH CONTENT OF CYCLIC DIPEPTIDE” (SUNTORY HOLDINGS LIMITED, priority 2014, published 2017)
# Columns and labels:
# plasma active GLP-1 = assay: In vivo plasma active GLP-1 level-increasing action after oral administration; parameters: species or system mice; details: 10 mg/kg orally; for Plasma active GLP-1 level (relative value to control group as 100), Average value: male C57/BL6J mice, blood after 30 minutes, 0.5% CMC-Na group = 100; for Significant difference (p < 0.05) vs control group, plasma active GLP-1 level: mice, 30 minutes, Student's t-test
# Method: (§1) In the Test Examples below, data were represented as average value±standard error. In Test Examples 1, 2, and 3, a Student's t-test was used for a statistical test, and in other Test Examples, one-way ANOVA was carried out for dispersion analysis followed by a multiple comparison test by using a Dunnet's test. […] All of these analyses were carried out by using an SPSS for Windows release 17.0 (manufactured by SPSS Inc.).
# Among the cyclic dipeptides, cyclic dipeptides for which an in vitro GLP-1 secretion-accelerating action was found and highly lipid-soluble cyclic dipeptides were used in the following experiment. Seven-week-old male C57/BL6J mice were purchased from CLEA Japan, Inc. for use, and they were subjected to an experiment after 1 week of a habituation period. Each animal was grown in an animal room with an air conditioning system (temperature: 23.5±1.0° C., humidity: 55±10 RH %, air ventilation: 12 to 15 times/hour, illumination: from 7:00 to 19:00/day).
# After the habituation period, the mice were subjected to 5.5 hours of food deprivation and 2 hours of water deprivation. Thereafter, a cyclic dipeptide dissolved or suspended in a 0.5% CMC-Na aqueous solution in 10 mg/kg was orally administered to each mouse forcibly. After 30 minutes, the blood was collected from the abdominal vena cava under anesthesia, and 1 μL of heparin sodium and 1 μL of 10 mM Sitagliptin phosphate were added to each collected blood, which was then subjected to centrifugation at 8000 rpm for 10 minutes to recover the plasma, and the plasma active GLP-1 level was measured by using the ELISA kit. In the analysis, the active GLP-1 level for a group administered with 0.5% CMC-Na aqueous solution was defined as 100, and relative values thereto were used.
# In each Table, cyclic dipeptides for which an in vivo plasma active GLP-1 level-increasing action was found and was not found are listed.
# NCI-H716 cells = assay: In vitro GLP-1 secretion-accelerating action (active GLP-1 ELISA); format: cell-based; details: for Significant difference (p < 0.05) vs control group, amount of active GLP-1 secreted: 1 hour, Student's t-test; for Amount of active GLP-1 secreted (relative value to control group as 100), Average value: after 1 hour, group with no cyclic dipeptide = 100
# Method: as §1
# Among the cyclic dipeptides, 92 highly water-soluble cyclic dipeptides were used in the following experiment. In each well of a Poly-L-Lysine 96-well plate, NCI-H716 cells suspended in 100 μL of a DMEM (with 10% FBS, 2 mM glutamine, and 1% antibiotics added in advance) were seeded at 0.5×10^5 cells/well, and cultured in a CO2 incubator (manufactured by ESPEC CORP.) for 48 hours. After washing with PBS(+), 100 μL of a PBS(+) solution with each cyclic dipeptide at a final concentration of 10 mM and 10 μM of Sitagliptin phosphate added therein was added to the cells. After 1 hour, the resultant solution was recovered, and the amount of active GLP-1 in the solution was measured by using the ELISA kit. In the analysis, the amount of active GLP-1 for a group with no cyclic dipeptide added was defined as 100, and relative values thereto were used.
# In each Table, cyclic dipeptides for which an in vitro active GLP-1 secretion-accelerating activity was found and was not found are listed.
# [1] = Experiment 2, cyclic dipeptide 10 mM with 10 μM Sitagliptin phosphate
# [2] = Experiment 4, cyclic dipeptide 10 mM with 10 μM Sitagliptin phosphate
smiles,measurement,setting,value
C[C@@H]1NC(=O)[C@H](CO)NC1=O [compound 25],"Plasma active GLP-1 level (relative value to control group as 100), Average value",plasma active GLP-1; Experiment 1,158
same,"Significant difference (p < 0.05) vs control group, plasma active GLP-1 level",plasma active GLP-1; Experiment 1,Yes
same,"Significant difference (p < 0.05) vs control group, amount of active GLP-1 secreted","NCI-H716 cells; Experiment 1, 10 mM",Yes
same,"Amount of active GLP-1 secreted (relative value to control group as 100), Average value","NCI-H716 cells; Experiment 1, cyclic dipeptide 10 mM with 10 μM Sitagliptin phosphate",257
NCCCC[C@@H]1NC(=O)[C@H](Cc2ccccc2)NC1=O [compound 63],"Plasma active GLP-1 level (relative value to control group as 100), Average value",plasma active GLP-1; Experiment 1,206
same,"Significant difference (p < 0.05) vs control group, plasma active GLP-1 level",plasma active GLP-1; Experiment 1,Yes
same,"Significant difference (p < 0.05) vs control group, amount of active GLP-1 secreted","NCI-H716 cells; Experiment 2, 10 mM",Yes
same,"Amount of active GLP-1 secreted (relative value to control group as 100), Average value",NCI-H716 cells; [1],220
CC(C)C1NC(=O)C(CCCNC(=N)N)NC1=O (stereo not drawn) [compound 194],"Plasma active GLP-1 level (relative value to control group as 100), Average value",plasma active GLP-1; Experiment 2,237
same,"Significant difference (p < 0.05) vs control group, plasma active GLP-1 level",plasma active GLP-1; Experiment 2,Yes
same,"Significant difference (p < 0.05) vs control group, amount of active GLP-1 secreted","NCI-H716 cells; Experiment 4, 10 mM",Yes
same,"Amount of active GLP-1 secreted (relative value to control group as 100), Average value",NCI-H716 cells; [2],498
NC(=O)CCC1NC(=O)C(Cc2c[nH]cn2)NC1=O (stereo not drawn) [compound 191],"Plasma active GLP-1 level (relative value to control group as 100), Average value",plasma active GLP-1; Experiment 2,247
same,"Significant difference (p < 0.05) vs control group, plasma active GLP-1 level",plasma active GLP-1; Experiment 2,Yes
same,"Significant difference (p < 0.05) vs control group, amount of active GLP-1 secreted","NCI-H716 cells; Experiment 4, 10 mM",Yes
same,"Amount of active GLP-1 secreted (relative value to control group as 100), Average value",NCI-H716 cells; [2],743
O=C1N[C@@H](Cc2c[nH]c3ccccc23)C(=O)N[C@H]1Cc1c[nH]cn1 [compound 60],"Plasma active GLP-1 level (relative value to control group as 100), Average value",plasma active GLP-1; Experiment 1,129
same,"Significant difference (p < 0.05) vs control group, plasma active GLP-1 level",plasma active GLP-1; Experiment 1,No
same,"Significant difference (p < 0.05) vs control group, amount of active GLP-1 secreted","NCI-H716 cells; Experiment 2, 10 mM",Yes
same,"Amount of active GLP-1 secreted (relative value to control group as 100), Average value",NCI-H716 cells; [1],260
C[C@@H]1NC(=O)C2CCCN2C1=O (stereo partly drawn) [compound 187],"Plasma active GLP-1 level (relative value to control group as 100), Average value",plasma active GLP-1; Experiment 2,217
same,"Significant difference (p < 0.05) vs control group, plasma active GLP-1 level",plasma active GLP-1; Experiment 2,Yes
same,"Significant difference (p < 0.05) vs control group, amount of active GLP-1 secreted","NCI-H716 cells; Experiment 4, 10 mM",Yes
same,"Amount of active GLP-1 secreted (relative value to control group as 100), Average value",NCI-H716 cells; [2],1186
CCC(C)C1NC(=O)C(CCC(N)=O)NC1=O (stereo not drawn) [compound 182],"Plasma active GLP-1 level (relative value to control group as 100), Average value",plasma active GLP-1; Experiment 2,188
same,"Significant difference (p < 0.05) vs control group, plasma active GLP-1 level",plasma active GLP-1; Experiment 2,Yes
same,"Significant difference (p < 0.05) vs control group, amount of active GLP-1 secreted","NCI-H716 cells; Experiment 4, 10 mM",Yes
same,"Amount of active GLP-1 secreted (relative value to control group as 100), Average value",NCI-H716 cells; [2],445
CSCCC1NC(=O)C(CCCNC(=N)N)NC1=O (stereo not drawn) [compound 199],"Plasma active GLP-1 level (relative value to control group as 100), Average value",plasma active GLP-1; Experiment 2,217
same,"Significant difference (p < 0.05) vs control group, plasma active GLP-1 level",plasma active GLP-1; Experiment 2,Yes
same,"Significant difference (p < 0.05) vs control group, amount of active GLP-1 secreted","NCI-H716 cells; Experiment 4, 10 mM",Yes
same,"Amount of active GLP-1 secreted (relative value to control group as 100), Average value",NCI-H716 cells; [2],652
O=C(O)CC1NC(=O)C(CO)NC1=O (stereo not drawn) [compound 193],"Plasma active GLP-1 level (relative value to control group as 100), Average value",plasma active GLP-1; Experiment 2,266
same,"Significant difference (p < 0.05) vs control group, plasma active GLP-1 level",plasma active GLP-1; Experiment 2,Yes
same,"Significant difference (p < 0.05) vs control group, amount of active GLP-1 secreted","NCI-H716 cells; Experiment 4, 10 mM",Yes
same,"Amount of active GLP-1 secreted (relative value to control group as 100), Average value",NCI-H716 cells; [2],509
